In patent publication US10822366B2, “Lincosamide derivatives, preparation and use thereof as antimicrobial agent” (MIKROBIOLOGICKY USTAV AV CR, V. V. I., priority 2017, dated 2020):
≈ marks a conversion by molar mass, not a printed value.

Tests used:
Kocuria rhizophila = assay: Disc diffusion test (antibacterial activity); format: cell-based; conditions: paper discs (diameter 5 mm) saturated with 5 nmol compound; LB agar covered with lincomycin sensitive test strain Kocuria rhizophila; 37° C., 20 h
Procedure: Filtration paper discs (geometric diameter 5 mm) saturated with 5 nmol of tested novel lincosamide compounds were placed on LB agar plates (tryptone 10 g, yeast extract 5 g, NaCl 10 g, supplemented with distilled water to 1000 mL, pH 7.5; agar 15 g) continuously covered with culture of the lincomycin sensitive test strain Kocuria rhizophila. The plates were incubated at 37° C. for 20 h.

K. rhizophila = assay: Minimum inhibitory concentration determination (EUCAST method); format: cell-based, Kocuria rhizophila; conditions: K. rhizophila in LB medium, concentration range 25-1600 nM tested, 24 h at 37° C.
Procedure: Minimum inhibitory concentrations were determined using the previously published method (European Committee for Antimicrobial Susceptibility Testing (EUCAST), Clin Microbiol Infect (2003), 9 (8), ix-xv). 5 μL suspension (McFarland scale 0.5) of K. rhizophila bacterial culture was inoculated into 1 mL of LB medium containing test substances of the desired concentration (a concentration range of 25-1600 nM was tested). The cultures were incubated for 24 h at 37° C.

SMILES | Disc diffusion test: size of inhibition zones (Kocuria rhizophila) [mm] | MIC (K. rhizophila; Kocuria rhizophila) [µM] | MIC (K. rhizophila) [µM]
CCC[C@@H]1C[C@@H](C(=O)N[C@@H]([C@H]2O[C@H](SCCOC(=O)c3ccccc3O)[C@H](O)[C@@H](O)[C@H]2O)[C@@H](C)OC)N(C)C1 | 28 | 0.1 (≈ 0.0571 µg/mL) | –
CCC[C@@H]1C[C@@H](C(=O)N[C@@H]([C@H]2O[C@H](SCCOC(=O)c3ccccc3O)[C@H](O)[C@@H](O)[C@H]2O)[C@@H](C)O)N(C)C1 | 29 | 0.1 (≈ 0.0557 µg/mL) | –
CO[C@H](C)[C@@H](NC(=O)[C@@H]1CCCN1C)[C@H]1O[C@H](SCCOC(=O)c2ccccc2O)[C@H](O)[C@@H](O)[C@H]1O [Celesticetin] | 19 | – | 1.6 (≈ 0.846 µg/mL)
CCC[C@@H]1C[C@@H](C(=O)N[C@@H]([C@H]2O[C@H](SC)[C@H](O)[C@@H](O)[C@H]2O)[C@@H](C)O)N(C)C1 [Lincomycin] | 24 | – | 0.4 (≈ 0.163 µg/mL)
